Measured values from US20190192522A1, “INHIBITORS OF THE FIBROBLAST GROWTH FACTOR RECEPTOR 4 IN COMBINATION WITH CYCLIN-DEPENDENT KINASE INHIBITORS” (BLUEPRINT MEDICINES CORPORATION, priority 2016, published 2019).

Legend:
[1] = tested on: HCC cell lines with an intact FGFR4 signaling pathway (FGFR4, FGF19, and KLB); details: Hagel et al., Cancer Discovery (2015); cited from earlier work
[2] = tested on: Huh-7 liver cancer xenograft; assay: Huh-7 liver cancer xenograft efficacy study in female Balb/c nude mice; format: in vivo, Mus Musculus; details: day eighteen
Protocol: Each mouse was inoculated subcutaneously at the right flank with tumor cells (5×10^6) in 0.2 ml of PBS supplemented with Matrigel (50:50) for tumor development. The treatments were started on day 11 after tumor inoculation when the average tumor size reached approximately 183 mm^3. Each group consisted of nine tumor-bearing mice.
Tumor size was measured twice weekly in two dimensions using a caliper, and the volume was expressed in mm^3 using the formula: […]
where a and b are the long and short diameters of the tumor, respectively. The tumor size was then used to calculate TGI and T/C values.
TGI was calculated for each group using the formula: […]
where Ti is the average tumor volume of a treatment group on a given day; T0 is the average tumor volume of the treatment group on the day treatment began; Vi is the average tumor volume of the vehicle control group on the same day Ti was measured, and V0 is the average tumor volume of the vehicle group on the day treatment began. The T/C value (in percent) is an indication of antitumor effectiveness. T and C are the mean volumes of the treated and control groups, respectively, on a given day.
Summary statistics, including mean and the standard error of the mean (SEM), were provided for the tumor volume of each group at each time point. For tumor volume comparison among more than two groups, a one-way ANOVA was performed. For comparisons between two groups, a t-test was performed. All analysis was run in GraphPad Prism 5.0, with p<0.05 considered to be statistically significant.
For all groups, at four hours after last dosing, tumor samples were collected in less than one minute after the euthanasia. Four tumors in each group were snap frozen; four tumors were fixed and made into FFPE.

[3] = tested on: LIX-066 human primary hepatocellular carcinoma model; assay: In vivo efficacy study in LIX-066 xenograft model; parameters: species or system mice; details: bid, po, D28
Protocol: LIX-066 was a human primary hepatocellular carcinoma model from ChemPartner. 130 mice were implanted for this study. Two animals were designated as sentinels; 2 animals were designated as extras.
Animals were monitored daily by general clinical observation throughout the study period. Body weights were recorded twice weekly before randomization and recorded every day during dosing period and the dose was adjusted per body weight. Tumor areas (length×width) was measured two to three times per week by using digimatic callipers throughout the study period and tumor volumes were calculated based on the following formula: tumor volume=[…]. The tumor volume was then used for calculations of net tumor growth inhibition (TGIn) values. The TGIn (in percent) is the indication of anti-tumor activity. TGIn (%)=[1−avTi-0/avCi-0)]×100; avTi-0 is the average of the tumor volume of each mouse in the treatment group on a specific day minus the tumor volume of each mouse in the treatment group on the first day; avCi-0 is the average of the tumor volume of each mouse in the Vehicle control group on a specific day minus the tumor volume of each mouse in the Vehicle control group on the first day of treatment. Efficacy data was graphically represented as the mean tumor volume±standard error of the mean (SEM).
Based on about 40% take rate, 50 animals were selected for efficacy study when their tumors reach appropriate size (100-300 mm^3). Five animals were used for plasma PK standard control. All other animals were euthanized. The 50 animals were randomized (blocked randomization/using Excel software) and divided into the following groups for compound administration:
Group 1: N=10; Vehicle control (PEG400: 20% HP-γ-CD=3:2)
Group 2: N=10; Compound 1, 30 mg/kg, bid, po
Group 3: N=10; Compound 1, 100 mg/kg, bid, po […]
All animals were monitored daily for clinical observation (animal mortality, appearance, spontaneous activity, body posture, and food and water intake. Any lesions and adverse reactions were recorded). […]
The mice were euthanized and the tumor weights were measured without sampling.

Hep3B tumor = assay: In vivo efficacy study in Hep3B-FGF19 amplified mice; details: Compound 1 monotherapy
Protocol: (§1) A similar study as described above was carried out using Hep3B-FGF19 amplified mice. Tumor volume results are shown in (FIG. 10A). Compound 1 monotherapy induced Hep3B tumor shrinkage (100% regression, >20% CRs).

[4] = Tolerability in Hep3B and LIX-066 tumor models; format: in vivo
Protocol: All animals were monitored daily for clinical observation (animal mortality, appearance, spontaneous activity, body posture, and food and water intake. Any lesions and adverse reactions were recorded). Any animals showing signs of debilitation, marked body weight loss (>20%), cachexia or large tumors that would inhibit an animal's ability to eat and drink or mobility were euthanized immediately. Any animals with severely ulcerated, infected or severely hemorrhagic tumors, or tumors whose estimated weight exceed 20% of the body weight were euthanized.
as §1

[5] = Body weight in Huh-7 xenograft study; details: palbociclib 90 mg/kg group, day fourteen
Protocol: Female Balb/c nude mice (Mus Musculus) between six and eight weeks old and weighing 18 to 20 g were used to evaluate the therapeutic efficacy of palbociclib and Compound 1 as monotherapies and in combination in Huh-7 liver cancer xenograft models. The tumor cells were maintained in vitro as a monolayer culture in DMEM medium supplemented with 10% heat inactivated fetal bovine serum at 37° C. in a 5% CO2 atmosphere. The tumor cells were routinely subcultured twice weekly by trypsin-EDTA treatment. The cells growing in an exponential growth phase were harvested and counted for tumor inoculation.
Palbociclib treated animals were supplied with sunflower seeds to mitigate body weight loss on and after day eight per the sponsor's approval.

C=CC(=O)Nc1cccc(C)c1Nc1ncc2cc(-c3c(Cl)c(OC)cc(OC)c3Cl)ccc2n1 [Compound 2, N-(2-((6-(2,6-dichloro-3,5-dimethoxyphenyl)quinazolin-2-yl)amino)-3-methylphenyl)acrylamide]
proliferation in HCC cell lines [1]: inhibit proliferation

C=CC(=O)N[C@H]1CCOC[C@H]1Nc1ncc2cc(-c3c(Cl)c(OC)cc(OC)c3Cl)ccc2n1 [Compound 1, N-((3S,4S)-3-((6-(2,6-dichloro-3,5-dimethoxyphenyl)quinazolin-2-yl)amino)tetrahydro-2H-pyran-4-yl)acrylamide]
T/C value ([2]; Compound 1 30 mg/kg bid): 57% | average tumor size ([2]; Compound 1 30 mg/kg bid): 1612 mm^3 | T/C value ([2]; Compound 1 100 mg/kg bid): 24% | average tumor size ([2]; Compound 1 100 mg/kg bid): 690 mm^3 | T/C value ([2]; Compound 1 200 mg/kg bid): 7% | average tumor size ([2]; Compound 1 200 mg/kg bid): 198 mm^3 | average tumor volume ([3]; Compound 1 30 mg/kg): 262.87 mm^3 | average tumor volume ([3]; Compound 1 100 mg/kg): 168.03 mm^3 | average tumor volume ([3]; Compound 1 200 mg/kg): 112.22 mm^3 | CRs (Hep3B tumor): > 20% | Hep3B tumor shrinkage (regression) (Hep3B tumor): 100% | tolerability [4]: well tolerated

CC(=O)c1c(C)c2cnc(Nc3ccc(N4CCNCC4)cn3)nc2n(C2CCCC2)c1=O [palbociclib, 6-acetyl-8-cyclopentyl-5-methyl-2-{[5-(1-piperazinyl)-2-pyridinyl]amino}pyrido[2,3-d]pyrimidin-7(8H)-one, reference compound]
T/C value ([2]; palbociclib 45 mg/kg): 71% | average tumor size ([2]; palbociclib 45 mg/kg): 1992 mm^3 | T/C value ([2]; palbociclib 90 mg/kg): 41% | average tumor size ([2]; palbociclib 90 mg/kg): 1169 mm^3 | body weight loss (same animal, euthanized) [5]: > 20%
